# Assay results: patent US20260364080A1, “PYRAZOLO-PYRIMIDINONE COMPOUNDS FOR USE IN METHODS OF INHIBITING WEE1 A KINASE” (Acrivon Therapeutics, Inc., priority 2023, published 2026)
# Like-named read-outs stand apart in the source and are kept apart here.
# Experiments:
# [1] = target: T1, Wee1A kinase (CDK1 Tyr15 phosphorylation in ACHN renal cell carcinoma cells) (Homo sapiens, UniProt P30291); assay: High-content imaging of pCdk1 Y15, Wee1A kinase target engagement in ACHN cells; assay type: cell-based
# T1 construct: pCDK1 Tyr15 immunofluorescence read-out
# Summary of the method: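 ACHN cells exposed to compound for 4 h over 7–5,000 nM or 0.3–200 nM, then fixed and immunostained for pCDK1 Y15 with DAPI nuclear counterstain. The percentage of pCdk1 Y15 nucleus-positive cells relative to DMSO control was imaged per well; EC50 from dose-response curves.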
# ACHN cells = assay: Cell Titer Glo viability assay, ACHN cells; assay type: cell-based; conditions: Homo sapiens, 144 h, absolute EC50
# Experimental: Each of an ACHN renal cell carcinoma cell line (ATCC) and a DAOY medulloblastoma cell line, and an A427 lung cancer line were cultured in Minimum Essential Medium Eagle supplemented with 10% fetal calf serum (Sigma), 1% Penicillin-Streptomycin and 10 mM HEPES buffer (HyClone). Cell cultures were kept in a humidified incubator at 37 °C and 5% CO2. Cells were routinely tested for Mycoplasma contamination.
# ACHN cells, DAOY cells, or A427 cells were seeded at a density of 400, 250, or 500 cells per well respectively, in tissue culture treated 384 well plates (Corning Costar). After overnight incubation, cells were treated with drugs at concentrations ranging from 17 to 10 000 nM. Viability compared to untreated control was assessed at 144 h using Cell Titer Glo assay 2.0 (Promega). […] “NT” means the compounds was not tested in the indicated cells.
# [2] = target: T2, recombinant human Wee1A kinase (Homo sapiens, UniProt P30291); assay: Wee1A kinase binding assay (LanthaScreen Eu time-resolved FRET)
# T2 construct: full length Wee1 kinase was expressed by baculovirus in insect cells; purchased Invitrogen PV3817; host or cells: insect cells (baculovirus)
# Summary of the method: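 Full-length, baculovirus-expressed GST-tagged Wee1A (5 nM) was mixed with 2 nM Eu-anti-GST antibody, 30 nM kinase tracer 178 and compound (1% DMSO). Buffer was 50 mM HEPES pH 7.5, 10 mM MgCl2, 1 mM EGTA, 0.01% Brij-35, incubated 60 min at room temperature. TR-FRET 665/615 nm emission ratios from duplicates were curve-fitted.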
# [3] = target: T3, Myt1 kinase (recombinant PMYT-1) (Homo sapiens, UniProt Q99640); assay: Myt1 kinase binding assay (LanthaScreen Eu Kinase Binding Assay)
# T3 construct: full length PMYT-1 was expressed by baculovirus in insect cells; purchased Invitrogen A30984; host or cells: insect cells (baculovirus)
# T3 sequence (Q99640 1-499): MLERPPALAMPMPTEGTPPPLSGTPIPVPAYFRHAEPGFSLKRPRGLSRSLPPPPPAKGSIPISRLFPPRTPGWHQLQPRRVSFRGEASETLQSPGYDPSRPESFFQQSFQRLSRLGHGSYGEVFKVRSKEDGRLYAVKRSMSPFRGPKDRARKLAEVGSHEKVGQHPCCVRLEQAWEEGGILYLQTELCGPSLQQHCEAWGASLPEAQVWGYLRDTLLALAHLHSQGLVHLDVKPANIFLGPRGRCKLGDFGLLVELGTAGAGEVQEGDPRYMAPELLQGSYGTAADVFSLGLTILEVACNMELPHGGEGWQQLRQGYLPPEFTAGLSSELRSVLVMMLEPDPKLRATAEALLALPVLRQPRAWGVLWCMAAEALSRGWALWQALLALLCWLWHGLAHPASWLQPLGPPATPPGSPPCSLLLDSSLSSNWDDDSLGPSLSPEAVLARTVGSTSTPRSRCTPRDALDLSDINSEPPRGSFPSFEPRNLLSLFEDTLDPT
# Summary of the method: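 The binding affinity of compounds for Myt1 kinase was measured with a LanthaScreen Europium (Eu) Kinase Binding Assay, a time-resolved FRET format in which test compounds compete against a labeled kinase tracer, and the results were expressed as IC50 values describing compound binding to Myt1.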
# [4] = read-out: CDK1 Tyr15 Phosphorylation EC50, 4 h treatment, nuclear positivity for pCdk1 Y15 vs DMSO control
# [5] = Myt1 kinase Binding IC50, 3 nM tracer 178, 2.5 nM PMYT-1, 1 nM Eu-labeled antibody
# [6] = 4 h treatment, nuclear positivity for pCdk1 Y15 vs DMSO control, read-out: CDK1 Tyr15 Phosphorylation EC50
# [7] = 30 nM tracer 178, 5 nM Wee1A kinase, 2 nM Eu-labeled antibody, 60 minutes at room temperature, read-out: Wee1A kinase Binding IC50
# [8] = 3 nM tracer 178, 2.5 nM PMYT-1, 1 nM Eu-labeled antibody, read-out: Myt1 kinase Binding IC50
# T2 sequence (P30291 whole entry): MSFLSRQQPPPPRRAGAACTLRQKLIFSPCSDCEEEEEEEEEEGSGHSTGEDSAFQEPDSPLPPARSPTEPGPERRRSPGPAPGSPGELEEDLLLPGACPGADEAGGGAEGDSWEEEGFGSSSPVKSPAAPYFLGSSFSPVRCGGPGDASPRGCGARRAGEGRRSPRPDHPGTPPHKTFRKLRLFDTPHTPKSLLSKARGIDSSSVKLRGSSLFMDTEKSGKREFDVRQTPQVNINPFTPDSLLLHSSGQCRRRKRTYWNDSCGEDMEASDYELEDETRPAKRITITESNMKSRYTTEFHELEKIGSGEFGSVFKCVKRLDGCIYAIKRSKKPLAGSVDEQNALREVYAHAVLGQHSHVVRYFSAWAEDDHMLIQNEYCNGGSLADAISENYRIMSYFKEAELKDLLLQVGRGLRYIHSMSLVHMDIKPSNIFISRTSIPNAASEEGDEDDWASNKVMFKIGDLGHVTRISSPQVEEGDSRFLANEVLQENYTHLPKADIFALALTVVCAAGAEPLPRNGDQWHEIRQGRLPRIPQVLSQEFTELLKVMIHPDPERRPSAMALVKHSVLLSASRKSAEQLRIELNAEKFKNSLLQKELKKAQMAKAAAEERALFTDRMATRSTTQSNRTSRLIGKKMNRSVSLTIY
# T1 sequence (P30291 whole entry): as above
"EC50 [1, 4]",EC50 (ACHN cells),IC50 [2],"IC50 [3, 5]","EC50 [1, 6]","IC50 [2, 7]","IC50 [3, 8]",Structure (SMILES)
< 100 nM,100 to 500 nM,< 10 nM,> 500 nM,,,,"C=CCn1c(=O)c2cnc(Nc3ccc4c(cnn4C)c3)nc2n1-c1cccc(N(C)C2CCNCC2)n1 [Compound 116, 1-[6-(N-methyl-N-4-piperidylamino)-2-pyridyl]-2-allyl-6-(1-methyl-1H-indazol-5-ylamino)-1,2-dihydro-3H-1,2,5,7-tetraazainden-3-one]"
,100 to 500 nM,,,100 to 500 nM,< 10 nM,20 to 100 nM,"CCn1c(=O)c2cnc(Nc3ccc(C#N)cc3)nc2n1-c1cccc(OC2CCN(C)CC2)n1 [Compound 310, p-{2-ethyl-1-[6-(1-methyl-4-piperidyloxy)-2-pyridyl]-3-oxo-1,2-dihydro-3H-1,2,5,7-tetraazainden-6-ylamino}benzonitrile]"
,100 to 500 nM,,,100 to 500 nM,< 10 nM,100 to 500 nM,"CCn1c(=O)c2cnc(Nc3ccc(F)cc3)nc2n1-c1cccc(OC2CCN(C)CC2)n1 [Compound 290, 2-ethyl-6-(p-fluorophenylamino)-1-[6-(1-methyl-4-piperidyloxy)-2-pyridyl]-1,2-dihydro-3H-1,2,5,7-tetraazainden-3-one]"
,≤ 100 nM,,,< 100 nM,< 10 nM,20 to 100 nM,"C=CCn1c(=O)c2cnc(Nc3cccc(C#N)c3)nc2n1-c1cccc(OC2CCN(C)CC2)n1 [Compound 305, m-{2-allyl-1-[6-(1-methyl-4-piperidyloxy)-2-pyridyl]-3-oxo-1,2-dihydro-3H-1,2,5,7-tetraazainden-6-ylamino}benzonitrile]"
,100 to 500 nM,,,< 100 nM,< 10 nM,100 to 500 nM,"C=CCn1c(=O)c2cnc(Nc3ccc4c(cnn4C)c3)nc2n1-c1cccc(O[C@@H]2CCCNC2)n1 [Compound 103, 6-[(1-Methyl-1H-indazol-5-yl)amino]-1-{6-[(3R)-piperidin-3-yloxy]pyridin-2-yl}-2-(prop-2-en-1-yl)-1H,2H,3H-pyrazolo[3,4-d]pyrimidin-3-one; bis(trifluoroacetic acid)]"
,100 to 500 nM,,,100 to 500 nM,< 10 nM,20 to 100 nM,"C=CCn1c(=O)c2cnc(Nc3ccc(F)cc3)nc2n1-c1cccc(OC2CCCN(C)CC2)n1 (stereo not drawn) [Compound 317, 2-allyl-6-(p-fluorophenylamino)-1-[6-(1-methyl-4-azepanyloxy)-2-pyridyl]-1,2-dihydro-3H-1,2,5,7-tetraazainden-3-one]"
,> 1000 nM,,,500 to 1000 nM,< 10 nM,20 to 100 nM,"C=CCn1c(=O)c2cnc(Nc3ccnc(C)c3)nc2n1-c1cccc(OC2CCNCC2)n1 [Compound 113, 2-allyl-6-(2-methyl-4-pyridylamino)-1-[6-(4-piperidyloxy)-2-pyridyl]-1,2-dihydro-3H-1,2,5,7-tetraazainden-3-one]"
100 to 500 nM,100 to 500 nM,< 10 nM,> 500 nM,,,,"C=CCn1c(=O)c2cnc(Nc3ccc(Cl)cc3)nc2n1-c1cccc(N(C)C2CCN(C)CC2)n1 [Compound 157, 6-[(4-chlorophenyl)amino]-1-{6-[methyl(1-methylpiperidin-4-yl)amino]pyridin-2-yl}-2-(prop-2-en-1-yl)-1H,2H,3H-pyrazolo[3,4-d]pyrimidin-3-one]"
,≤ 100 nM,,,< 100 nM,< 10 nM,20 to 100 nM,"C=CCn1c(=O)c2cnc(Nc3ccc(C#N)cc3)nc2n1-c1cccc(OC2CCN(C)CC2)n1 [Compound 301, p-{2-allyl-1-[6-(1-methyl-4-piperidyloxy)-2-pyridyl]-3-oxo-1,2-dihydro-3H-1,2,5,7-tetraazainden-6-ylamino}benzonitrile]"
,> 1000 nM,,,> 1000 nM,< 10 nM,20 to 100 nM,"CCn1c(=O)c2cnc(Nc3ccc4c(c3)ncn4C)nc2n1-c1cccc(OC2CCNCC2)n1 [Compound 318, 2-ethyl-6-((1-methyl-1H-benzo[d]imidazol-5-yl)amino)-1-(6-(piperidin-4-yloxy)pyridin-2-yl)-1,2-dihydro-3H-pyrazolo[3,4-d]pyrimidin-3-one]"
,≤ 100 nM,,,< 100 nM,< 10 nM,20 to 100 nM,"C=CCn1c(=O)c2cnc(Nc3cncc(C)c3)nc2n1-c1cccc(OC2CCN(C)CC2)n1 [Compound 292, 1-{6-[(1-methylpiperidin-4-yl)oxy]pyridin-2-yl}-6-[(5-methylpyridin-3-yl)amino]-2-(prop-2-en-1-yl)-1H,2H,3H-pyrazolo[3,4-d]pyrimidin-3-one]"
,≤ 100 nM,,,< 100 nM,< 10 nM,100 to 500 nM,"C=CCn1c(=O)c2cnc(Nc3ccc4c(cnn4C)c3)nc2n1-c1cccc(N[C@@H]2CCN(CC)C2)n1 [Compound 119, 1-(6-{[(3R)-1-ethylpyrrolidin-3-yl]amino}pyridin-2-yl)-6-[(1-methyl-1H-indazol-5-yl)amino]-2-(prop-2-en-1-yl)-1H,2H,3H-pyrazolo[3,4-d]pyrimidin-3-one]"
,100 to 500 nM,,,< 100 nM,< 10 nM,100 to 500 nM,"C=CCn1c(=O)c2cnc(Nc3cc(C)nc(C)c3)nc2n1-c1cccc(OC2CCN(C)CC2)n1 [Compound 199, 6-[(2,6-dimethylpyridin-4-yl)amino]-1-{6-[(1-methylpiperidin-4-yl)oxy]pyridin-2-yl}-2-(prop-2-en-1-yl)-1H,2H,3H-pyrazolo[3,4-d]pyrimidin-3-one]"
,100 to 500 nM,,,100 to 500 nM,< 10 nM,100 to 500 nM,"CCn1c(=O)c2cnc(Nc3cccc(C)c3)nc2n1-c1cccc(OC2CCNCC2)n1 [Compound 298, 2-ethyl-1-[6-(4-piperidyloxy)-2-pyridyl]-6-m-toluidino-1,2-dihydro-3H-1,2,5,7-tetraazainden-3-one]"
,100 to 500 nM,,,< 100 nM,< 10 nM,< 20 nM,"C=CCn1c(=O)c2cnc(Nc3ccc4scnc4c3)nc2n1-c1cccc(OC2CCNCC2)n1 [Compound 246, 2-allyl-6-(benzo[d]thiazol-5-ylamino)-1-(6-(piperidin-4-yloxy)pyridin-2-yl)-1,2-dihydro-3H-pyrazolo[3,4-d]pyrimidin-3-one]"
,500 to 1000 nM,,,100 to 500 nM,< 10 nM,100 to 500 nM,"C=CCn1c(=O)c2cnc(Nc3ccc(OC)c(C)c3)nc2n1-c1cccc(NC2CCNCC2)n1 [Compound 127, 2-allyl-6-(4-methoxy-3-toluidino)-1-[6-(4-piperidylamino)-2-pyridyl]-1,2-dihydro-3H-1,2,5,7-tetraazainden-3-one]"
,100 to 500 nM,,,< 100 nM,< 10 nM,100 to 500 nM,"C=CCn1c(=O)c2cnc(Nc3ccc(F)cc3)nc2n1-c1ccnc(NC2CCN(C)CC2)n1 [Compound 312, 2-allyl-6-(p-fluorophenylamino)-1-[2-(1-methyl-4-piperidylamino)-4-pyrimidinyl]-1,2-dihydro-3H-1,2,5,7-tetraazainden-3-one]"
,≤ 100 nM,,,< 100 nM,< 10 nM,100 to 500 nM,"C=CCn1c(=O)c2cnc(Nc3cccc(C)c3)nc2n1-c1cccc(NC2CCN(C)CC2)n1 [Compound 188, 2-allyl-1-[6-(1-methyl-4-piperidylamino)-2-pyridyl]-6-m-toluidino-1,2-dihydro-3H-1,2,5,7-tetraazainden-3-one]"
